Earlier results, collected in paper PMC4686915, “An engineered scorpion toxin analogue with improved Kv1.3 selectivity displays reduced conformational flexibility” (Scientific Reports, 2015).
Where two headings read alike, the source gives them in different places.

Legend:
Kv1.2 = biological target: Kv1.2
Excerpt: (§1) Anuroctoxin (AnTx, αKTx 6.12) is a peptide toxin of 35 amino acids with a molecular weight of 4082.8, stabilized by four disulphide bridges, which was isolated by our workgroup from the venom of the scorpion Anuroctonus phaiodactylus. […] Our aim was to improve the selectivity of the wild-type toxin for Kv1.3 by site-directed changes in the primary sequence of the peptide. || Figure 1 Sequence comparison of Kv1.2- and Kv1.3-selective toxins. The aligned primary sequences are shown for toxins for which the affinities for both Kv1.2 and Kv1.3 channels were determined. Toxins were classified as Kv1.2-selective, non-selective or Kv1.3-selective based on the ratio of the determined Kd values for the two channels. TEXT PRINTED IN THE PICTURE: maurotoxin: KdKv1.2/KdKv1.3: 0.004; KdKv1.2 (nM): 0.8; KdKv1.3 (nM): 180; selectivity: Kv1.2 | CoTX1: KdKv1.2/KdKv1.3: 0.005; KdKv1.2 (nM): 27; K ... || First we aimed at reproducing the effects of natural anuroctoxin with the wild-type toxin produced by solid-state chemical synthesis, denoted as sAnTx. The blocking effect of sAnTx was first tested on Kv1.3 channels expressed by activated human lymphocytes. Channels were activated by depolarizing pulses to +50 mV to maximize the open probability and pulse duration was limited to 15 ms to minimize inactivation. The use of such short pulses prevented cumulative inactivation and allowed us to record the current amplitude every 15 s giving better temporal resolution of the kinetics of block develo ... || (+ 1 further places)

Kv1.3 [1] = biological target: T1, Kv1.3 (Homo sapiens, UniProt P22001); parameters: endogenous in cells; settings: for selectivity class: Figure 1, based on ratio of Kd values for Kv1.2 and Kv1.3, ref not given; for block of Kv1.3, in words: toxins with tyrosine at the aromatic dyad position, ref 10 (ChTx), 13 (Css20), 32 (Tst26), 33 (noxiustoxin), 34 (hongotoxin-1), 30 (Pi1)
T1 sequence (P22001 whole entry): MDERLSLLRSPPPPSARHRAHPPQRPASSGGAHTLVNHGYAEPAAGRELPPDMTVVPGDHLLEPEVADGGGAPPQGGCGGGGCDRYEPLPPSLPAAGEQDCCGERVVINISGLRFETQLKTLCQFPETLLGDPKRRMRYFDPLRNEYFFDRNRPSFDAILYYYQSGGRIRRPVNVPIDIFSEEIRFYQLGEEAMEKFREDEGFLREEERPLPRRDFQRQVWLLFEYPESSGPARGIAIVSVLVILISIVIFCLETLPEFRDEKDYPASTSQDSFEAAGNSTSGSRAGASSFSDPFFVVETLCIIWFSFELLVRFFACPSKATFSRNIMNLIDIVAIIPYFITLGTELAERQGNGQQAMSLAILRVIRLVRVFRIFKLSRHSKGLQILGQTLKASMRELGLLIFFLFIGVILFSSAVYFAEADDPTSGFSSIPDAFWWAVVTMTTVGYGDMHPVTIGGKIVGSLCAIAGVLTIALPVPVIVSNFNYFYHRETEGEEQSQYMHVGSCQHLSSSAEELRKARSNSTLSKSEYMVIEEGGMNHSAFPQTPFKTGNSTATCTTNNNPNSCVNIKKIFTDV
Excerpt: as §1, with “(+ 3” for “(+ 1”

Kv1.2 (Homo sapiens) = Kv1.2 (Homo sapiens) (UniProt P16389)
Sequence of Kv1.2 (Homo sapiens) (P16389 whole entry): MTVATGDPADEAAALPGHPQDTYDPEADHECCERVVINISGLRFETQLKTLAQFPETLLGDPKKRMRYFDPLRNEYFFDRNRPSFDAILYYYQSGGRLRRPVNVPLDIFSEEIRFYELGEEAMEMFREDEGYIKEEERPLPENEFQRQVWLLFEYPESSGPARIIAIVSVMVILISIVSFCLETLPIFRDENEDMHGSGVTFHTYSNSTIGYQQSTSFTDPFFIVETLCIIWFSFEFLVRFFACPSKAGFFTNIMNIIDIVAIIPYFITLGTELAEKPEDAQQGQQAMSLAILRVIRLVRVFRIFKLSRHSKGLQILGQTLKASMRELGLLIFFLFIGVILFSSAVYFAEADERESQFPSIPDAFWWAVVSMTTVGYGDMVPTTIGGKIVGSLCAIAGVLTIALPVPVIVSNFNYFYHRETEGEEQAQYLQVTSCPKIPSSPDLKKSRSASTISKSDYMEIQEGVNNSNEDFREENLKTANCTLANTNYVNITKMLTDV

Kv1.3 [2] = biological target: T1, Kv1.3
hKv1.2 V381H = test system: hKv1.2 V381H
Excerpt: (§2) We first targeted the essential dyad to improve selectivity. […] While the necessity of the dyad lysine was shown for other Kv channels as well[10], the requirement for the aromatic half of the dyad, especially the tyrosine, is not as straightforward for blocking Kv1.3.

hKv1.3 H399T = test system: hKv1.3 H399T
Excerpt: as §2

[3] = Figure 1 sequence comparison, literature toxins, ref not given, read-out: KdKv1.2
[4] = Figure 1 sequence comparison, literature toxins, ref not given
[5] = Figure 1 sequence comparison, literature toxins, ref not given, read-out: KdKv1.3

Sequence of anuroctoxin (P0C166 whole entry): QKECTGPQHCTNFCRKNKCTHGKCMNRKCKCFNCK

Row | Substance | Kd (Kv1.2; [3]) [nM] | selectivity class (Kv1.3 [1]) | KdKv1.2/KdKv1.3 (Kv1.3 [1]; [4]) | Kd (Kv1.3 [1]; [5]) [nM] | block of Kv1.3, in words (Kv1.3 [1]) | Kd (Kv1.2 (Homo sapiens)) [nM] | Kd (Kv1.3 [2]) [nM] | Kd (Kv1.2; listed as natural toxin, read-out: Kd Kv1.2 of natural anuroctoxin) [nM] | Kd (Kv1.3 [1]; listed as natural toxin, read-out: Kd Kv1.3 of natural anuroctoxin) [nM] | selectivity of the natural toxin for Kv1.3 over Kv1.2 (Kv1.3 [1]; natural toxin) [fold] | MTX binding affinity of hKv1.2 with V381H mutation (hKv1.2 V381H) | MTX sensitivity of Kv1.3 with H399T replacement (hKv1.3 H399T)
1 | Hongotoxin-1 | 0.17 | non-selective (non-selective) | 1.9 | 0.09 | nanomolar range | – | – | – | – | – | – | –
2 | Noxiustoxin (TIINVKCTSPKQCSKPCKELYGSSAGAKCMNGKCKCYNN; UniProt P08815 1-39, looked up) [scorpion toxin] | 2 | non-selective (non-selective) | 2 | 1 | nanomolar range | – | – | – | – | – | – | –
3 | anuroctoxin (from UniProt P0C166) | – | – | – | – | – | 6.14 | 0.73 | – | – | – | – | –
4 | anuroctoxin [AnTx] | 6 | non-selective (non-selective) | 9 | – | – | – | – | 6.1 | 0.7 | 9 | – | –
5 | charybdotoxin [ChTx] | 14 | non-selective (non-selective) | 5.4 | 2.6 | nanomolar range | – | – | – | – | – | – | –
6 | kaliotoxin [KTX] | > 1000 | Kv1.3 (Kv1.3-selective) | > 1538 | 0.65 | – | – | – | – | – | – | – | –
7 | maurotoxin | 0.8 | Kv1.2 (Kv1.2-selective) | 0.004 | 180 | – | – | – | – | – | – | drastically reduced MTX binding affinity | made Kv1.3 sensitive to MTX
